Laboratory results: the supplement of paper PMC7021759
± gives the standard deviation of the averaged measurements.

System: SK-N-MM (SKNMM-MYCN, doxycycline-inducible MYCN)
Test: area under dose-response curve (CellTiter-Glo viability normalised to plate controls) (AUC (arbitrary units)); higher = more loss of viability; extreme values may be limits of the assay
How it was run: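 Compounds were pin-transferred as 10-point 1:3 dilution series (890-fold stock dilution) onto SK-N-MM cells with doxycycline-inducible MYCN, plated at 1250 cells/100 μL in 96-well plates and switched about 24 h after plating to medium with or without doxycycline two days before dosing. Dosing was repeated on day 4, and CellTiter-Glo luminescence was read 3 or 8 days after drugging. Area under the dose-response curve came from log2 signals normalised to the positive and negative controls on each plate.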

[1] = MYCN induction (doxycycline): +doxycycline (MYCN induced), time after drugging: 3 days
[2] = MYCN induction (doxycycline): +doxycycline (MYCN induced), time after drugging: 8 days
[3] = MYCN induction (doxycycline): no doxycycline (MYCN not induced), time after drugging: 3 days
[4] = MYCN induction (doxycycline): no doxycycline (MYCN not induced), time after drugging: 8 days

CC(/C=C/C(=O)NO)=C\[C@@H](C)C(=O)c1ccc(N(C)C)cc1 [TRICHOSTATIN A]
area under dose-response curve [1]: 159 | area under dose-response curve [2]: 310 | area under dose-response curve [3]: 124 | area under dose-response curve [4]: 282

CN[C@H]1CN(c2ccc3c(=O)c(C(=O)O)cn(-c4nccs4)c3n2)C[C@@H]1OC [VOSAROXIN]
area under dose-response curve [1]: 39.3 | area under dose-response curve [2]: 92.8 | area under dose-response curve [3]: 16.4 | area under dose-response curve [4]: 48.5

CCC1(c2ccc(N)cc2)CCC(=O)NC1=O (stereo not drawn) [AMINOGLUTETHIMIDE]
area under dose-response curve [1]: 0 | area under dose-response curve [2]: 0 | area under dose-response curve [3]: 0

Cn1ncnc1[C@H]1c2n[nH]c(=O)c3cc(F)cc(c23)N[C@@H]1c1ccc(F)cc1 [TALAZOPARIB]
area under dose-response curve [1]: 48.2 ± 12 | area under dose-response curve [2]: 183 ± 40 | area under dose-response curve [3]: 29.3 ± 20 | area under dose-response curve [4]: 78.2 ± 25

COc1cc2c(Oc3ccc(NC(=O)C4(C(=O)Nc5ccc(F)cc5)CC4)cc3F)ccnc2cc1OCCCN1CCOCC1 [FORETINIB]
area under dose-response curve [1]: 167 | area under dose-response curve [2]: 170 | area under dose-response curve [3]: 144 | area under dose-response curve [4]: 140

C[C@@H]1O[C@@H](O[C@H]2C[C@@H](O)[C@]3(CO)[C@H]4[C@H](O)C[C@]5(C)[C@@H](C6=CC(=O)OC6)CC[C@]5(O)[C@@H]4CC[C@]3(O)C2)[C@H](O)[C@H](O)[C@H]1O [OUABAIN]
area under dose-response curve [1]: 178 | area under dose-response curve [2]: 280 | area under dose-response curve [3]: 173 | area under dose-response curve [4]: 275

CC(=O)O[C@@]12CO[C@@H]1C[C@H](O)[C@@]1(C)C(=O)[C@H](O)C3=C(C)[C@@H](OC(=O)[C@H](O)[C@@H](NC(=O)OC(C)(C)C)c4ccccc4)C[C@@](O)([C@@H](OC(=O)c4ccccc4)[C@H]21)C3(C)C [DOCETAXEL]
area under dose-response curve [1]: 142 | area under dose-response curve [2]: 292 | area under dose-response curve [3]: 107 | area under dose-response curve [4]: 183

CN(C)C/C=C/C(=O)Nc1cc2c(Nc3ccc(F)c(Cl)c3)ncnc2cc1O[C@H]1CCOC1 [AFATINIB]
area under dose-response curve [1]: 137 | area under dose-response curve [2]: 145 | area under dose-response curve [3]: 140 | area under dose-response curve [4]: 121

N#CC[C@H](C1CCCC1)n1cc(-c2ncnc3[nH]ccc23)cn1 [RUXOLITINIB]
area under dose-response curve [1]: 27.6 | area under dose-response curve [2]: 121 | area under dose-response curve [3]: 22.3 | area under dose-response curve [4]: 100

CCc1ccc(CCOc2ccc(CC3SC(=O)NC3=O)cc2)nc1 (stereo not drawn) [PIOGLITAZONE]
area under dose-response curve [1]: 0 | area under dose-response curve [2]: 0 | area under dose-response curve [3]: 0 | area under dose-response curve [4]: 0

CN(C)c1ccc2nc3ccc(=[N+](C)C)cc-3sc2c1 [METHYLENE BLUE]
area under dose-response curve [1]: 48.8 | area under dose-response curve [2]: 152 | area under dose-response curve [3]: 45.6 | area under dose-response curve [4]: 75.9

CNC(=O)c1cc(Oc2ccc(NC(=O)Nc3ccc(Cl)c(C(F)(F)F)c3)c(F)c2)ccn1 [REGORAFENIB]
area under dose-response curve [1]: 30.6 | area under dose-response curve [2]: 47.7 | area under dose-response curve [3]: 18.8 | area under dose-response curve [4]: 61.4

NC1(c2ccc(-c3nc4ccn5c(=O)[nH]nc5c4cc3-c3ccccc3)cc2)CCC1 [MK-2206]
area under dose-response curve [2]: 0 | area under dose-response curve [3]: 81.6 | area under dose-response curve [4]: 149

COc1cc2nc(N3CCCN(C)CC3)nc(NC3CCN(Cc4ccccc4)CC3)c2cc1OC
area under dose-response curve [1]: 195 | area under dose-response curve [2]: 247 | area under dose-response curve [3]: 194 | area under dose-response curve [4]: 243

O=C1NC(=O)[C@@H](c2cn3c4c(cccc24)CCC3)[C@@H]1c1c[nH]c2ccccc12 [TIVANTINIB]
area under dose-response curve [1]: 102 | area under dose-response curve [2]: 135 | area under dose-response curve [3]: 53.3 | area under dose-response curve [4]: 77.2

Nc1ccn([C@@H]2O[C@H](CO)[C@@H](O)[C@@H]2O)c(=O)n1 [CYTARABINE]
area under dose-response curve [1]: 40.4 | area under dose-response curve [2]: 221 | area under dose-response curve [3]: 33.7 | area under dose-response curve [4]: 132

O=C(CCCCCCC(=O)Nc1ccccc1)NO [VORINOSTAT]
area under dose-response curve [1]: 78.4 | area under dose-response curve [2]: 191 | area under dose-response curve [3]: 58.2 | area under dose-response curve [4]: 145

Oc1ccc(C2=Cc3ccc(O)cc3OC2)cc1 [IDRONOXIL]
area under dose-response curve [1]: 38.3 | area under dose-response curve [2]: 77.4 | area under dose-response curve [3]: 17.5 | area under dose-response curve [4]: 46.3

COc1cc2c(cc1-c1c(C)noc1C)ncc1[nH]c(=O)n([C@H](C)c3ccccn3)c12 [I-BET151]
area under dose-response curve [1]: 10.5 | area under dose-response curve [2]: 46.3 | area under dose-response curve [3]: 14.6 | area under dose-response curve [4]: 36.3

Cc1nc(Nc2ncc(C(=O)Nc3c(C)cccc3Cl)s2)cc(N2CCN(CCO)CC2)n1 [DASATINIB]
area under dose-response curve [1]: 39.9 | area under dose-response curve [2]: 121 | area under dose-response curve [3]: 40 | area under dose-response curve [4]: 51.4

C=CCn1c(=O)c2cnc(Nc3ccc(N4CCN(C)CC4)cc3)nc2n1-c1cccc(C(C)(C)O)n1 [MK-1775]
area under dose-response curve [1]: 105 ± 20 | area under dose-response curve [2]: 159 ± 26 | area under dose-response curve [3]: 42.5 ± 14 | area under dose-response curve [4]: 98.1 ± 4.8

C1=N/C2=N/c3ccc(OCCN4CCCC4)c(c3)COC/C=C/COCc3cccc(c3)C(=C1)N2 [PACRITINIB]
area under dose-response curve [1]: 170 | area under dose-response curve [2]: 176 | area under dose-response curve [3]: 165 | area under dose-response curve [4]: 198

S=c1[nH]cnc2nc[nH]c12 [MERCAPTOPURINE]
area under dose-response curve [1]: 8.11 | area under dose-response curve [2]: 21.7 | area under dose-response curve [3]: 12.1 | area under dose-response curve [4]: 13.1

CNC(=O)c1ccc(N2C(=S)N(c3ccc(C#N)c(C(F)(F)F)c3)C(=O)C2(C)C)cc1F [ENZALUTAMIDE]
area under dose-response curve [1]: 0 | area under dose-response curve [2]: 0 | area under dose-response curve [3]: 0 | area under dose-response curve [4]: 0

CCN(CCCOc1ccc2c(Nc3cc(CC(=O)Nc4cccc(F)c4)[nH]n3)ncnc2c1)CCOP(=O)(O)O [BARASERTIB]
area under dose-response curve [1]: 19.5 | area under dose-response curve [2]: 92.2 | area under dose-response curve [4]: 33.5

OCCN1CCN(CCCN2c3ccccc3Sc3ccc(C(F)(F)F)cc32)CC1 [FLUFENAZINE]
area under dose-response curve [1]: 0 | area under dose-response curve [2]: 0 | area under dose-response curve [3]: 0 | area under dose-response curve [4]: 0

CN1CCCN(C(=O)c2cccc(-c3ccc(/C=C4/C(=O)Nc5ccc(Cl)cc54)o3)c2)CC1 [CX-6258]
area under dose-response curve [1]: 165 | area under dose-response curve [2]: 206 | area under dose-response curve [3]: 166 | area under dose-response curve [4]: 202

Cc1c2oc3c(C)ccc(C(=O)N[C@@H]4C(=O)N[C@H](C(C)C)C(=O)N5CCC[C@H]5C(=O)N(C)CC(=O)N(C)[C@@H](C(C)C)C(=O)O[C@@H]4C)c3nc-2c(C(=O)N[C@@H]2C(=O)N[C@H](C(C)C)C(=O)N3CCC[C@H]3C(=O)N(C)CC(=O)N(C)[C@@H](C(C)C)C(=O)O[C@@H]2C)c(N)c1=O [DACTINOMYCIN]
area under dose-response curve [1]: 140 | area under dose-response curve [2]: 282 | area under dose-response curve [3]: 91.4 | area under dose-response curve [4]: 210

Cn1nccc1Nc1nccc(-c2ccn([C@H](CO)c3ccc(Cl)c(F)c3)c(=O)c2)n1 [GDC-0994]
area under dose-response curve [1]: 0 | area under dose-response curve [2]: 0 | area under dose-response curve [3]: 2.52 | area under dose-response curve [4]: 0
